Assay [1] concerns the target T1, STAT6 (Homo sapiens, UniProt P42226).
T1 construct: Recombinant STAT6 protein (STAT6(W123-T658))
T1 sequence (P42226 123-658): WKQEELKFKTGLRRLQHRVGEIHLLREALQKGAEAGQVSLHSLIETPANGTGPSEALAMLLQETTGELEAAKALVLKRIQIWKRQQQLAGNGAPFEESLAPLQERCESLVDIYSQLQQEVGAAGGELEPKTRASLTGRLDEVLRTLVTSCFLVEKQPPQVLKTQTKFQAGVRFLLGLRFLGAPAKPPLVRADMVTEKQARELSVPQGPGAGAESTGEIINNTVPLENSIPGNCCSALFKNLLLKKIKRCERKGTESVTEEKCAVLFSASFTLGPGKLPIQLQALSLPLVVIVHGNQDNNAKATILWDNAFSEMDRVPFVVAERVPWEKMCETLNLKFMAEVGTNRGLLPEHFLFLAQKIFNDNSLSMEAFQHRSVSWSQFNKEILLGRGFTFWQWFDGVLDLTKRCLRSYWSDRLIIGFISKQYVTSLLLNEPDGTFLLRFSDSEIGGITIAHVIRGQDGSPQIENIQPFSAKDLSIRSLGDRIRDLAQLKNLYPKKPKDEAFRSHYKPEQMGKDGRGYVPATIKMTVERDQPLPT
Description: STAT6 Fluorescence Polarization (FP) Assay. The class given is binding. The essentials:
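STAT6(W123-T658) at 250 nM with 2 nM 5-FAM-ApYKPFQDLI-NH2 probe in HEPES pH 7.4, 50 mM NaCl, EDTA, Tween 20, DTT, 1% DMSO. FP read after 45 min at room temperature; IC50 from nonlinear fit of mP versus log concentration.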
In general terms: In fluorescence polarisation assays a small probe gives low polarisation when free and higher when bound to something large.

Assay [2] deals with T2, STAT3 (Homo sapiens, UniProt P40763).
T2 construct: Recombinant STAT3 protein (STAT3(G127-I722))
Put plainly: STAT3 Fluorescence Polarization (FP) Assay. The class given is binding. The essentials: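 Recombinant STAT3 (G127–I722, 25 nM) was mixed with 2 nM 5-FAM-GpYLPQTV-NH2 probe in HEPES pH 7.4 buffer with 1% DMSO and serially diluted compound. Fluorescence polarization was read after 45 min at room temperature. IC50 came from nonlinear regression of mP versus log concentration and was binned A (≤100 nM), B (>100–1000 nM), C (>1–10 μM) or D (>10 μM).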

Assay [3] concerns the target T3, pSTAT6 (Homo sapiens, UniProt P42226).
T3 sequence (P42226 1-847): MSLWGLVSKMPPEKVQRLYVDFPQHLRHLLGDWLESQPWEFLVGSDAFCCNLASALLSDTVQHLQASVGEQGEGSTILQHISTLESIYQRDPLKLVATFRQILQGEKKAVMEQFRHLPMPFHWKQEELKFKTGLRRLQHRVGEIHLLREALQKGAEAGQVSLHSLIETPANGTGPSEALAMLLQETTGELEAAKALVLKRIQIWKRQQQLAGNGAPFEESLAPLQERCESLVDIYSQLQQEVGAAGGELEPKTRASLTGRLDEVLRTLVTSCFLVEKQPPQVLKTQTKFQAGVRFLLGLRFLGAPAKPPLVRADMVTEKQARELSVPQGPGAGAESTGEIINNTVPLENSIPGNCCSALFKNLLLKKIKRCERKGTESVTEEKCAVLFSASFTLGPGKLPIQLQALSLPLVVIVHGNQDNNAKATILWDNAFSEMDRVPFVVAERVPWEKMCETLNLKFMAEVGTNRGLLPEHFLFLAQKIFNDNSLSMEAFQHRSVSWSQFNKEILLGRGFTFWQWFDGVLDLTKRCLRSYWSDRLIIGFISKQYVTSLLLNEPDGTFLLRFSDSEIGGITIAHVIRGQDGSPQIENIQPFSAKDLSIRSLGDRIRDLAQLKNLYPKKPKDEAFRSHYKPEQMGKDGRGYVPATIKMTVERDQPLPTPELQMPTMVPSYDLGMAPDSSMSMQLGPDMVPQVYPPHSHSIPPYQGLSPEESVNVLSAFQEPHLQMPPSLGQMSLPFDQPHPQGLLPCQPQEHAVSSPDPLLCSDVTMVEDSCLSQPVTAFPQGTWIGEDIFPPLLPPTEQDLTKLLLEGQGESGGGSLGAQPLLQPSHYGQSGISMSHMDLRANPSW
Description: MSD-pSTAT-PBMC Assay (pSTAT6, IL-4 stimulated). Type of assay: cell-based. From the text:
Cryopreserved Peripheral Blood Mononuclear Cells (PBMC) are from AllCells. Recombinant Human IL-4 and IL-6 are from Peprotech. Mouse monoclonal anti-STAT3 antibody, rabbit monoclonal anti-pY705-STAT3 antibody, rabbit monoclonal Anti-pY641-STAT6 antibody, and lysis buffer are from Cell Signaling Technology (CST). Mouse monoclonal anti-STAT6 antibody is from BioLegend. Assay plates, blocker, and anti-rabbit secondary antibody are from Meso Scale Discovery (MSD).
Cryopreserved PBMCs were thawed out and allowed to recover overnight in IMDM+10% heat-inactivated FBS prior to plating 50,000 (STAT3) or 25,000 (STAT6) cells per well in 96-well U-bottom tissue culture plates. Cells were treated with compound for 3 hrs, then stimulated with 10 ng/mL IL-6 (STAT3) or 1 ng/mL IL-4 (STAT6) for 10 min. Cells were then spun down and washed with ice-cold PBS prior to lysing the cell pellet with 1× lysis buffer (CST) with 1× HALT protease and phosphatase inhibitor cocktail (Thermo). Lysates were transferred to and incubated overnight at 4° C. with shaking in QuickPlex 96-well high bind assay plates (MSD) pre-coated overnight with 30 μL per well of […] mouse monoclonal anti-STAT3 antibody (STAT3) or 2 μg/mL mouse monoclonal anti-STAT6 antibody (STAT6) in 1× PBS, and pre-blocked for 1 hour with 3% Blocker-A (MSD). Captured protein in the assay plates were then washed and probed with 25 μL per well of […] rabbit monoclonal anti-pY705-STAT3 antibody (STAT3) or […] rabbit monoclonal Anti-pY641-STAT6 antibody (STAT6) in 1% Blocker-A for 1 hour at room temperature with shaking, then washed and probed with 25 ul per well of 1 ug/ml Sulfo-TAG Labeled Goat Anti-Rabbit Antibody (MSD) in 1% Blocker-A for 1 hour at room temperature with shaking. Assay plates were then washed and 150 μL of 1× Read Buffer-T (MSD) was added to each well prior to reading on an SQ120 MSD Plate Reader. Assay signal from each sample was subtracted by the signal from unstimulated control wells and normalized to DMSO control wells. IC50 values were calculated using Graph Pad Prism Dose-Response Nonlinear Regression with variable slope. For both pSTAT3 and pSTAT6 A=≤100 nM; B=>100-1000 nM; C=>1000-3000 nM; and D=>3 μM.

Where [4] appears, read: compound 3 hrs, then 1 ng/mL IL-4 10 min, pY641-STAT6, read-out: pSTAT6 IC50.
[5] abbreviates: read-out: pSTAT6 IC50, compound 3 hrs, then 1 ng/mL IL-4 10 min, pY641-STAT6.

The structures appear in SMILES notation. Read-outs that look alike come from different tables or passages of the source.

T2 sequence (P40763 127-722): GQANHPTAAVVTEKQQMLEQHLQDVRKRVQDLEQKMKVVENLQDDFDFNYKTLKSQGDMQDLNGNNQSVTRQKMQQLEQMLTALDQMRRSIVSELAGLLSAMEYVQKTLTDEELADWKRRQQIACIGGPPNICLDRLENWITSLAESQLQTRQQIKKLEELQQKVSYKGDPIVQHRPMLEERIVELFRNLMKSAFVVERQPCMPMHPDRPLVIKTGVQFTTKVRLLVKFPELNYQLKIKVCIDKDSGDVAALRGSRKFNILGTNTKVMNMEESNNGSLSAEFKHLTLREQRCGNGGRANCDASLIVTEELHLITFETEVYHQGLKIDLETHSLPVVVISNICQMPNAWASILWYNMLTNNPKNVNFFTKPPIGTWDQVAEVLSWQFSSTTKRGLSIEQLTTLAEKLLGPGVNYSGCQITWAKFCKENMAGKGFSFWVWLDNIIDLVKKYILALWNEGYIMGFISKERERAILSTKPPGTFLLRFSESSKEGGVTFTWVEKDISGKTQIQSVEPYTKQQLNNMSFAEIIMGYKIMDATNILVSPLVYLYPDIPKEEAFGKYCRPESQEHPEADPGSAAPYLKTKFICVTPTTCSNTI

Regarding `N#C[C@@H]1CN(C(=O)[C@@H]2CC[C@@H]3CCCC[C@H](NC(=O)c4cc5cc(C(F)(F)P(=O)(O)O)ccc5s4)C(=O)N32)C[C@H]1c1cccc(OCCCCOc2ccc(C3CCC(=O)NC3=O)cc2)c1` (mixture of isomers) [Compound 3, trans-((2-(((3S,6S,10aS)-3-(3-cyano-4-(3-(4-(4-(2,6-dioxopiperidin-3-yl)phenoxy)butoxy)phenyl)pyrrolidine-1-carbonyl)-5-oxodecahydropyrrolo[1,2-a]azocin-6-yl)carbamoyl)benzo[b]thiophen-5-yl)difluoromethyl)phosphonic acid], the figures for the IC50 in assay [1], in assay [2] and in assay [3] (setting [4]) were below 0.3 µM, 0.1 to 1 µM and 1 to 3 µM, respectively. For `O=C1CCC(N2Cc3c(C#CCCCCCCn4ccc([C@@H]5CN(C(=O)[C@@H]6CC[C@@H]7CCCC[C@H](NC(=O)c8cc9cc(C(F)(F)P(=O)(O)O)ccc9s8)C(=O)N76)C6(CC6)C5)cc4=O)cccc3C2=O)C(=O)N1` (stereo partly drawn) [Compound 5, ((2-(((3S,6S,10aS)-3-((6R)-6-(1-(8-(2-(2,6-dioxopiperidin-3-yl)-1-oxoisoindolin-4-yl)oct-7-yn-1-yl)-2-oxo-1,2-dihydropyridin-4-yl)-4-azaspiro[2.4]heptane-4-carbonyl)-5 oxodecahydropyrrolo[1,2-a]azocin-6-yl)carbamoyl)benzo[b]thiophen-5-yl)difluoromethyl)phosphonic acid], the IC50 in assay [1] was 0.3 to 3 µM; in assay [2], 1 to 10 µM; in assay [3] (setting [4]), 0.1 to 1 µM. Taken in the same sequence, the figures for `N#CC1CN(C(=O)C2CCC3CCCCC(NC(=O)c4cc5cc(C(F)(F)P(=O)(O)O)ccc5s4)C(=O)N32)CC1c1cccc(OCCCCCC#Cc2cccc3c2CN(C2CCC(=O)NC2=O)C3=O)c1` [Compound 13, ((2-(((3S,6S,10aS)-3-((rel-3S,4R)-3-cyano-4-(3-((7-(2-(2,6-dioxopiperidin-3-yl)-1-oxoisoindolin-4-yl)hept-6-yn-1-yl)oxy)phenyl)pyrrolidine-1-carbonyl)-5-oxodecahydropyrrolo[1,2-a]azocin-6-yl)carbamoyl)benzo[b]thiophen-5-yl)difluoromethyl)phosphonic acid] were below 0.3 µM, 0.1 to 1 µM and above 3 µM. As for `CCCC(=O)SCCOP(=O)(OCCSC(=O)CCC)C(F)(F)c1ccc2sc(C(=O)N[C@H]3CCCC[C@H]4CC[C@@H](C(=O)N5C[C@@H](c6ccn(CCCCCOc7ccc(C8CCC(=O)NC8=O)cc7)c(=O)c6)CC56CC6)N4C3=O)cc2c1` (stereo partly drawn) [Compound 18, S,S(((((2-(((3S,6S,10aS)-3-((6R)-6-(1-(5-(4-(2,6-dioxopiperidin-3-yl)phenoxy)pentyl)-2-oxo-1,2-dihydropyridin-4-yl)-4-azaspiro[2.4]heptane-4-carbonyl)-5-oxodecahydropyrrolo[1,2-a]azocin-6-yl)carbamoyl)benzo[b]thiophen-5-yl)difluoromethyl)phosphoryl)bis(oxy))bis(ethane-2,1-diyl)) dibutanethioate], the IC50 in assay [3] (setting [4]) is below 0.1 µM. Turning to `CCCC(=O)SCCOP(=O)(OCCSC(=O)CCC)C(F)(F)c1ccc2sc(C(=O)NC3CCCCC4CCC(C(=O)N5CC(C#N)C(c6cccc(N7CCN(c8ccc9c(c8)[nH]c(=O)n9C8CCC(=O)NC8=O)CC7)c6)C5)N4C3=O)cc2c1` [Compound 23, S,S(((((2-(((3S,6S,10aS)-3-((rel-3S,4R)-3-cyano-4-(3-(4-(1-(2,6-dioxopiperidin-3-yl)-2-oxo-2,3-dihydro-1H-benzo[d]imidazol-5-yl)piperazin-1-yl)phenyl)pyrrolidine-1-carbonyl)-5-oxodecahydropyrrolo[1,2-a]azocin-6-yl)carbamoyl)benzo[b]thiophen-5-yl)difluoromethyl)phosphoryl)bis(oxy))bis(ethane-2,1-diyl)) dibutanethioate], the IC50 in assay [3] (setting [5]) was below 0.1 µM. With `CCCC(=O)SCCOP(=O)(OCCSC(=O)CCC)C(F)(F)c1ccc2sc(C(=O)N[C@H]3CCCC[C@H]4CC[C@@H](C(=O)N5C[C@@H](c6ccn(C7CCN(c8ccc9c(c8)[nH]c(=O)n9C8CCC(=O)NC8=O)CC7)c(=O)c6)CC56CC6)N4C3=O)cc2c1` (stereo partly drawn) [Compound 25, S,S((((2-(((3S,6S,10aS)-3-((6R)-6-(1-(1-(1-(2,6-dioxopiperidin-3-yl)-2-oxo-2,3-dihydro-1H-benzo[d]imidazol-5-yl)piperidin-4-yl)-2-oxo-1,2-dihydropyridin-4-yl)-4-azaspiro[2.4]heptane-4-carbonyl)-5-oxodecahydropyrrolo[1,2-a]azocin-6-yl)carbamoyl)benzo[b]thiophen-5-yl)difluoromethyl)phosphoryl)bis(oxy))bis(ethane-2,1-diyl)) dibutanethioate], the IC50 in assay [3] (setting [5]) lay within 0.1 to 1 µM. In the case of `CCCC(=O)SCCOP(=O)(OCCSC(=O)CCC)C(F)(F)c1ccc2sc(C(=O)N[C@H]3CCCC[C@H]4CC[C@@H](C(=O)N5C[C@@H](c6ccn(CCOCCOCCOc7cccc8c7CN(C7CCC(=O)NC7=O)C8=O)c(=O)c6)CC56CC6)N4C3=O)cc2c1` (stereo partly drawn) [Compound 26, S,S((((2-(((3S,6S,10aS)-3-((6R)-6-(1-(2-(2-(2-((2-(2,6-dioxopiperidin-3-yl)-1-oxoisoindolin-4-yl)oxy)ethoxy)ethoxy)ethyl)-2-oxo-1,2-dihydropyridin-4-yl)-4-azaspiro[2.4]heptane-4-carbonyl)-5-oxodecahydropyrrolo[1,2-a]azocin-6-yl)carbamoyl)benzo[b]thiophen-5-yl)difluoromethyl)phosphoryl)bis(oxy))bis(ethane-2,1-diyl)) dibutanethioate], the IC50 in assay [3] (setting [4]) is 0.1 to 1 µM.

These data come from patent US20260306642A1, “STAT DEGRADERS AND USES THEREOF” (Recludix Pharma, Inc., priority 2023, published 2026).
